Measurements as given in article PMC7497679, “Structure-based design, synthesis, and evaluation of the biological activity of novel phosphoroorganic small molecule IAP antagonists” (Investigational New Drugs, 2020).
Where two headings read alike, the source gives them in different places.

Tests used:
[1] = test system: MCF-7; test: Antiproliferative activity, SRB method; type: cell-based, human; conditions: 72 h; for inhibition at 10 µM: Homo sapiens, MCF7, 10 µM, read-out: mean proliferation inhibition at highest concentration used, MCF-7
From the text: (§1) MDA-MB-231 (human breast cancer), MCF10A (human, nontumorigenic mammary gland epithelial cells), A549 (human nonsmall-cell lung cancer), UMUC-3 (human bladder cancer) and LoVo (human colon cancer) cell lines were obtained from the American Type Culture Collection (ATCC; Rockville, Maryland, USA). The MCF-7 cell line (human breast cancer) was obtained from the European Collection of Cell Cultures (ECACC; Salisbury, UK). All cell lines were maintained at the Hirszfeld Institute of Immunology and Experimental Therapy (HIIET), Wrocław, Poland. MDA-MB-231 cells were cultured in RPMI1640 medium (Thermo Fisher Scientific, Warszawa, Poland) supplemented with 2 mM L-glutamine, 1 mM sodium pyruvate, and 10% fetal bovine serum (all from Sigma-Aldrich, Poznań, Poland). The MCF10A cell line was cultured in Ham’s F12 medium with glutamine (Corning) supplemented with 5% (v/v) fetal bovine serum (FBS), 5% (v/v) horse serum, 10 µg/mL insulin, 0.05 µg/mL cholera toxin, 0.5 µg/mL hydrocortisone, and 20 ng/mL hEGF (all from Sigma-Aldrich). A549 and LoVo cells were cultured in a 1:1 (v/v) mixture of RPMI1640 and Opti-MEM (both from HIIET) supplemented with 5% (v/v) FBS and 2 mM L-glutamine. The UMUC-3 cell line was cultured in high glucose DMEM (Thermo Fisher Scientific) supplemented with 10% FBS and 2 mM Lglutamine. The MCF-7 line was cultured in Eagle’s minimal essential medium (EMEM; Thermo Fisher Scientific) supplemented with 10% (v/v) FBS, 2 mM L-glutamine, 1% (v/v) nonessential amino acids, and 8 µg/mL insulin (all from Sigma-Aldrich). All culture media contained 100 µg/mL streptomycin (Sigma-Aldrich) and 100 U/mL penicillin (Polfa Tarchomin SA, Warszawa, Poland). The cells were grown at 37 °C in a humid atmosphere saturated with 5% CO2.
(§2) Antiproliferative activity was assessed in six cell lines utilizing the sulforhodamine B (SRB) method. Briefly, cells were seeded in 96-well plates (Sarstedt, Warszawa, Poland) at a density of 5 × 10^3 cells/well, and after overnight incubation, the cells were exposed to compounds at various concentrations. After 72 h, the plates were fixed with 50% (v/v) TCA (all from Sigma-Aldrich), washed with tap water, and the precipitated proteins were labeled with 0.1% (w/v) SRB solution in 1% (v/v) AcOH. Next, the plates were washed with 1% (v/v) AcOH, and the remaining SRB dye was solubilized with 10 mM unbuffered TRIS solution. The absorbance was measured using a Biotek Hybrid H4 reader (BioTek Instruments, VT, USA) at 540 nm. Crude results were analyzed using a previously described method, and the results are expressed as the IC50 (compound concentration that reduced cell growth by 50%) compared to the vehicletreated control (0.1% (v/v) DMSO). The samples were analyzed in triplicate, and each experiment was repeated at least three times.

[2] = test system: UMUC-3; test: Antiproliferative activity, SRB method; type: cell-based, human; conditions: 72 h; for inhibition at 10 µM: Homo sapiens, UMUC3, 10 µM, read-out: mean proliferation inhibition at highest concentration used, UMUC-3
From the text: as §1, §2

[3] = test system: MDA-MB-231; test: Antiproliferative activity, SRB method; type: cell-based, human; conditions: read-out: IC50 ± SD (n = 3) MDA-MB-231
From the text: as §1, §2

[4] = test system: LoVo; test: Antiproliferative activity, SRB method; type: cell-based, human; conditions: 72 h; for inhibition at 10 µM: Homo sapiens, LoVo, read-out: mean proliferation inhibition at highest concentration used, LoVo
From the text: as §1, §2

[5] = test system: MCF-10A; test: Antiproliferative activity, SRB method; type: cell-based, human; conditions: 72 h; for inhibition at 10 µM: Homo sapiens, MCF-10A, read-out: mean proliferation inhibition at highest concentration used, MCF-10A
From the text: as §1, §2

[6] = test system: A549; test: Antiproliferative activity, SRB method; type: cell-based, human; conditions: 72 h; for inhibition at 10 µM: Homo sapiens, A549, 10 µM, read-out: mean proliferation inhibition at highest concentration used, A549
From the text: as §1, §2

[7] = molecular target: T1, XIAP BIR3 domain (Homo sapiens, UniProt P98170); test: Fluorescence polarization inhibition (competition) assay; type: binding; conditions: for inhibition at 50 µM: 0.5 h, antagonist 50 µM, inhibition of protein-probe interaction; for Ki / EC50: XIAP BIR3 50 nM, fluorescent probe 4 2 nM
T1 construct: fluorescent probe 4 and the XIAP BIR3 domain (Sino Biological, Beijing, China) were used for all measurements; purchased Sino Biological, Beijing, China
T1 sequence (P98170 252-356 limits assumed): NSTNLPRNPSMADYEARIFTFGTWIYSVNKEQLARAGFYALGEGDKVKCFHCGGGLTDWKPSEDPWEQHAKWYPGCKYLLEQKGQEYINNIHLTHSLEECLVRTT
Experimental: The fluorescence polarization assay was performed at r.t. in Corning 384-well black, polystyrene flat bottom plates (Corning, NY, USA) on a Synergy H4 Hybrid Reader (BioTek, Bad Friedrichshall, Germany). For fluorescence polarization measurements, (milipolarization units, mP) 484/20 nm excitation and 528/20 nm emission filters were selected. Phosphate buffer (pH 7.5) supplemented with γ-globulin (100 µg/mL) and NaN3 (0.02% w/v), fluorescent probe 4 and the XIAP BIR3 domain (Sino Biological, Beijing, China) were used for all measurements. All experiments were performed in duplicate. The obtained fluorescence polarization assay data were analyzed with Prism 5.0 Software (GraphPad Software, San Diego, ca.).
After a 15 min incubation at r.t., fluorescent probe 4 (2 nM) was added. The values were measured 30 min after the moment the probe was added. The assay was performed in phosphate buffer with a final DMSO concentration of 1.4% (v/v). […] In order to evaluate the quality and precision of the performed screening assay, we determined the Z´ factor as described by Zhang et al.. The obtained fluorescence polarization values were used to determine the percent inhibition, which was plotted as a function of the protein concentration. The EC50 and Ki values were calculated with GraphPad software (log(agonist) vs. response (variable slope) model) in combination with the web tool developed by Nikolovska-Coleska et al..
Fluorescence polarization inhibition assay and data analysis for 41m and 42m compounds was performed as described in the Material and Methods section of the manuscript. Briefly, 50 nM solution of the BIR3 XIAP protein in polarization buffer was added into phosphoroorganic compound solution (from 50 μM to 0.0537 nM). After 15 min incubation at r.t. the fluorescent probe 4 (2 nM) was added.
The values were read after 30 minutes from the moment the probe was added. The obtained fluorescence polarization values were used to determine the percentage of inhibition which was plotted as a function of the protein concentration (Supplementary Figure S4).
(1 picture or pasted object on this page, not shown here)

Row | SMILES | inhibition at 50 µM [7] [%] | Ki [7] [µM] | EC50 ([7]; read-out: EC50) [µM] | EC50 ([7]; read-out: log EC50 (converted)) [µM] | other results
1 | CN[C@@H](C)C(=O)N[C@H](C(=O)N1CCC[C@H]1C(=O)NC(Cc1ccccc1)P(=O)(c1ccccc1)c1ccccc1)C1CCCCC1 (stereo partly shown) [Compound 14] | 100 | 0.64 | 1.31 | 1.31 | inhibition at 10 µM [1]: 20%; inhibition at 10 µM [2]: 8%; IC50 ([3]; Homo sapiens, MDA-MB-231, 72 h): 2.72 ± 0.69 µM; inhibition at 10 µM [4]: 7%; inhibition at 10 µM [5]: 1%; inhibition at 10 µM [6]: 5%
2 | [NH2][Pt]([NH2])([Cl])[Cl] [CDDP, cisplatin, reference compound] |  |  |  |  | IC50 ([1]; read-out: IC50 ± SD (n = 3) MCF-7): 5.36 ± 1.8 µM; IC50 ([2]; read-out: IC50 ± SD (n = 3) UMUC-3): 3.73 ± 0.63 µM; IC50 ([3]; 72 h): 22.1 ± 5.26 µM; IC50 ([4]; read-out: IC50 ± SD (n = 3) LoVo): 3.9 ± 1.3 µM; IC50 ([5]; read-out: IC50 ± SD (n = 3) MCF-10A): 6.76 ± 1.2 µM; IC50 ([6]; read-out: IC50 ± SD (n = 3) A549): 1.6 ± 0.4 µM
3 | CN[C@@H](C)C(=O)N[C@H](C(=O)N1CCC[C@H]1c1nc(C(=O)c2ccc(F)cc2)cs1)C1CCCCC1 [LCL-161, reference compound] |  |  |  |  | inhibition at 10 µM [1]: 19%; inhibition at 10 µM [2]: 16%; IC50 ([3]; Homo sapiens, MDA-MB-231, 72 h): 0.76 ± 0.23 µM; inhibition at 10 µM [4]: 26%; inhibition at 10 µM [5]: 2%; inhibition at 10 µM [6]: 11%
4 | CN[C@@H](C)C(=O)N[C@H](C(=O)N1CCC[C@H]1C(=O)NC(Cc1ccccc1)P(=O)(c1ccccc1)c1ccccc1)C(C)C (stereo partly shown) [Compound 13] | 100 | 0.75 | 1.53 | 1.53 | inhibition at 10 µM [1]: 22%; inhibition at 10 µM [2]: 6%; IC50 ([3]; Homo sapiens, MDA-MB-231, 72 h): 3.39 ± 0.42 µM; inhibition at 10 µM [4]: 6%; inhibition at 10 µM [5]: 5%; inhibition at 10 µM [6]: 2%
5 | CCc1ccc(OP(=O)(Oc2ccc(CC)cc2)C(C)NC(=O)[C@@H]2CCCN2C(=O)[C@@H](NC(=O)[C@H](C)NC)C(C)C)cc1 (stereo partly shown) [Compound 23] | 64.1 | 17 | 34.2 | 34.3 | 
6 | CN[C@@H](C)C(=O)N[C@H](C(=O)N1CCC[C@H]1C(=O)NC(CCc1ccccc1)P(=O)(Oc1ccccc1)Oc1ccccc1)C(C)C (stereo partly shown) [Compound 43] | 85.4 |  | 17.2 | 17.2 | 
7 | CN[C@@H](C)C(=O)N[C@H](C(=O)N1CCC[C@H]1C(=O)Nc1snnc1-c1ccccc1)C1CCCCC1 [GDC-0152, reference compound] |  |  | 0.01 |  | inhibition at 10 µM [1]: 18%; inhibition at 10 µM [2]: 13%; IC50 ([3]; Homo sapiens, MDA-MB-231, 72 h): 0.88 ± 0.21 µM; inhibition at 10 µM [4]: 9%; inhibition at 10 µM [5]: 1%; inhibition at 10 µM [6]: 13%
8 | CN[C@@H](C)C(=O)N[C@H](C(=O)N1CCC[C@H]1C(=O)NC(CCc1ccccc1)P(=O)(Oc1ccccc1)Oc1ccccc1)C1CCCCC1 (stereo partly drawn) [Compound 44, diphenyl (1-((S)-1-((S)-2-cyclohexyl-2-((S)-2-(methylamino)propanamido)acetyl)pyrrolidine-2-carboxamido)-3-phenylpropyl)phosphonate] | 86.5 | 7.57 | 15.3 | 15.3 | 
9 | CN[C@@H](C)C(=O)N[C@H](C(=O)N1CCC[C@H]1C(=O)NCP(=O)(C1CCCCC1)C1CCCCC1)C(C)C [Compound 9] | ~25 |  |  |  | 
10 | CN[C@@H](C)C(=O)N[C@H](C(=O)N1CCC[C@H]1C(=O)NC(C)P(=O)(c1ccc(C)cc1)c1ccc(C)cc1)C1CCCCC1 (stereo partly drawn) [Compound 17, (2S)-1-((S)-2-cyclohexyl-2-((S)-2-(methylamino)propanamido)acetyl)-N-(1-(di-p-tolylphosphoryl)ethyl)pyrrolidine-2-carboxamide] | 74 | 9.55 | 19.3 | 19.3 | 
11 | CN[C@@H](C)C(=O)N[C@H](C(=O)N1CCC[C@H]1C(=O)NC(C)P(=O)(Oc1ccc(C(C)C)cc1)Oc1ccc(C(C)C)cc1)C(C)C (stereo partly shown) [Compound 25] | 81.8 | 10.9 | 22 | 22 | 
12 | CN[C@@H](C)C(=O)N[C@H](C(=O)N1CCC[C@H]1C(=O)NCP(=O)(c1ccccc1C)c1ccccc1C)C(C)C [Compound 18, (S)-N-((di-o-tolylphosphoryl)methyl)-1-((S)-3-methyl-2-((S)-2-(methylamino)propanamido)butanoyl)pyrrolidine-2-carboxamide] | 62 | 14.5 | 29.3 | 29.2 | 
13 | CN[C@@H](C)C(=O)N[C@H](C(=O)N1CCC[C@H]1C(=O)NC(C)P(=O)(Oc1ccc(C(C)(C)C)cc1)Oc1ccc(C(C)(C)C)cc1)C(C)C (stereo partly drawn) [Compound 27, bis(4-(tert-butyl)phenyl) (1-((S)-1-((S)-3-methyl-2-((S)-2-(methylamino)propanamido)butanoyl)pyrrolidine-2-carboxamido)ethyl)phosphonate] | 83.3 | 10.5 | 21.3 | 21.3 | 
14 | CN[C@@H](C)C(=O)N[C@H](C(=O)N1CCC[C@H]1C(=O)NC(CC(C)C)P(=O)(Oc1ccccc1)Oc1ccccc1)C1CCCCC1 (stereo partly shown) [Compound 38] | 84.2 | 5.25 | 10.6 | 10.6 | 
15 | CN[C@@H](C)C(=O)N[C@H](C(=O)N1CCC[C@H]1C(=O)NC(C)P(=O)(Oc1ccccc1)Oc1ccccc1)C(C)C (stereo partly drawn) [Compound 29, diphenyl (1-((S)-1-((S)-3-methyl-2-((S)-2-(methylamino)propanamido)butanoyl)pyrrolidine-2-carboxamido)ethyl)phosphonate] | 62.1 | 15.8 | 31.9 | 31.8 | 
16 | CN[C@@H](C)C(=O)N[C@H](C(=O)N1CCC[C@H]1C(=O)NC(CCSC)P(=O)(Oc1ccccc1)Oc1ccccc1)C(C)C (stereo partly shown) [Compound 39] | 65.8 | 13 | 26.2 | 26.2 | 
